Each structure is given as a SMILES string. Like-named read-outs stand apart in the source and are kept apart here.

These results are taken from patent US8975282B2, “Substituted pyrazolone compounds and methods of use” (Calitor Sciences, LLC, priority 2012, dated 2015).

Data set [1] has as its target KDR (h) (Homo sapiens (Human), UniProt P35968). Kind of data set: KINOMEscan competition binding assay, KDR (h).
Data set [2] has as its target c-Met (h) (Homo sapiens (Human), UniProt P08581). Kind of data set: KINOMEscan competition binding assay, c-Met (h).
For data set [3], the system named is U87MG glioblastoma cells. Briefly: U87MG tumor xenograft model, tumor growth inhibition. Format: in vivo. The following applies: nude mice, oral gavage once a day, 12 days. Here is the method: The efficacy of compounds disclosed herein was evaluated in a standard murine model of tumorigenesis. Human tumor cells (U87MG glioblastoma cells from ATCC) were expended in culture, harvested, and injected subcutaneously onto the rear flank of 6-7 week old female athymic nude mice (BALB/cA nu/nu, Hunan SLAC Laboratory Animal, Co.) (n=6-10 for vehicle group and for each dosing group). When tumors reached a volume of 100-250 mm^3, animals were randomly divided into vehicle control (for example, 5% DMSO+70% Captisol® (30%), 7% HCl (pH1), 18% Captisol® (30%); or 7% DMSO, 7% HCl (pH1), 70% Captisol® (30%), 16% Captisol® (30%), or the like) and compound groups. Subsequent administration of compound by oral gavage begins anywhere from day 0 to day 15 post tumor cell challenge and generally continues with once a day for the duration of the experiment.
Progression of tumor growth is assessed by tumor volumes and recorded as a function of time. The long (L) and short (W) axes of the subcutaneous tumors were measured with calipers twice weekly, and the tumor volume (TV) calculated as (L×W^2)/2). TGI was calculated from the difference between the median tumor volumes of vehicle-treated and drug-treated mice, expressed as a percentage of the median tumor volume of the vehicle-treated control group, by the following relation:
[formula] Initial statistical analysis is done by repeated measures analysis of variance (RMANOVA), followed by Scheffe psot hoc testing for multiple comparisons. Vehicle alone (5% DMSO+70% Captisol® (30%), 7% HCl (pH1), 18% Captisol® (30%); or 7% DMSO, 7% HCl (pH1), 70% Captisol® (30%), 16% Captisol® (30%), or the like) is the negative control.

A short description of data set [4]: Compound stability in rat liver microsomes. Format: in vitro ADME. The following applies: for stability / metabolism in rat liver microsomes (in words): incubated in rat liver microsomes; for half-life at 5 μM / CLint scaled at 5 μM: pH 7.4, rat liver microsomes; for half-life at 5 μM: 0.5 mg protein/mL, compound 5 μM, NADPH 1.0 mM, 37° C.; for CLint scaled at 5 μM: in vivo CLint extrapolated. On the procedure: Human or rat liver microsomes incubations were conducted in duplicate in polypropylene tubes. The typical incubation mixtures consisted of human or rat liver microsomes (0.5 mg protein/mL), compounds of interest (5 μM) and NADPH (1.0 mM) in a total volume of 200 μL, potassium phosphate buffer (PBS, 100 mM, pH 7.4). Compounds were dissolved in DMSO and diluted with PBS such that the final concentration of DMSO was 0.05%. The enzymatic reactions were commenced with the addition of protein after a 3-min preincubation and incubated in a water bath open to the air at 37° C. Reactions were terminated at various time points (0, 5, 10, 15, 30, 60 min) by adding equal volume of ice-cold acetonitrile. The samples were stored at −80° C. until LC/MS/MS assays.
The concentrations of compounds in the incubation mixtures of human or rat liver microsomes were determined by a LC/MS/MS method. The ranges of the linearity in the concentration range were determined for each tested compounds.
A parallel incubation was performed using denatured microsomes as the negative control, and reactions were terminated at various time points (0, 15, 60 min) after incubation at 37° C.
Dextromethorphan (70 μM) was selected as the positive control, and reactions were terminated at various time points (0, 5, 10, 15, 30, 60 min) after incubation at 37° C. Both positive and negative control samples were included in each assay to ensure the integrity of the microsomal incubation system.
The concentrations of compounds in human or rat liver microsome incubations were plotted as a percentage of the relevant zero time point control for each reaction. The in vivo CLint were extrapolated (ref: Naritomi Y, Terashita S, Kimura S, Suzuki A, Kagayama A, Sugiyama Y. Prediction of human hepatic clearance from in vivo animal experiments and in vitro metabolic studies with liver microsomes from animals and humans. Drug Metabolism and Disposition 2001, 29: 1316-1324.)

Data set [5] in a line: Pharmacokinetics after intravenous and oral administration in rats. Format: in vivo, rat. The following applies: for Cl/F / AUC(0-t) / half-life / Vd: iv dosing; for F: oral bioavailability; for AUC(0-t) / half-life / Vd: rat, plasma; for Vd: read-out: Vss. Here is the method: The compounds disclosed herein are assessed in pharmacokinetic studies in mice, rats, dogs or monkeys. The compounds are administered as a water solution, 2% HPMC+1% TWEEN®80 in water solution, 5% DMSO+5% solutol in saline, 4% MC suspension or capsule. For the intravenous administration, the animals are generally given at 1 or 2 mg/kg dose. For the oral (p.o.) dosing, mice and rats are generally given 5 or 10 mg/kg dose, and dogs and monkeys are generally given 10 mg/kg dose. The blood samples (0.3 mL) are drawn at 0.25, 0.5, 1.0, 2.0, 3.0, 4.0, 6.0, 8.0, 12 and 24 h time points or 0.083, 0.25, 0.5, 1.0, 2.0, 4.0, 6.0, 8.0 and 24 h time points and centrifuged at 3,000 or 4000 rpm for 2 to 10 min. The plasma solutions are collected, stored at −20° C. or -70° C. until analyzed by LC/MS/MS as described above.

Chain of c-Met (h) (P08581 25-1390): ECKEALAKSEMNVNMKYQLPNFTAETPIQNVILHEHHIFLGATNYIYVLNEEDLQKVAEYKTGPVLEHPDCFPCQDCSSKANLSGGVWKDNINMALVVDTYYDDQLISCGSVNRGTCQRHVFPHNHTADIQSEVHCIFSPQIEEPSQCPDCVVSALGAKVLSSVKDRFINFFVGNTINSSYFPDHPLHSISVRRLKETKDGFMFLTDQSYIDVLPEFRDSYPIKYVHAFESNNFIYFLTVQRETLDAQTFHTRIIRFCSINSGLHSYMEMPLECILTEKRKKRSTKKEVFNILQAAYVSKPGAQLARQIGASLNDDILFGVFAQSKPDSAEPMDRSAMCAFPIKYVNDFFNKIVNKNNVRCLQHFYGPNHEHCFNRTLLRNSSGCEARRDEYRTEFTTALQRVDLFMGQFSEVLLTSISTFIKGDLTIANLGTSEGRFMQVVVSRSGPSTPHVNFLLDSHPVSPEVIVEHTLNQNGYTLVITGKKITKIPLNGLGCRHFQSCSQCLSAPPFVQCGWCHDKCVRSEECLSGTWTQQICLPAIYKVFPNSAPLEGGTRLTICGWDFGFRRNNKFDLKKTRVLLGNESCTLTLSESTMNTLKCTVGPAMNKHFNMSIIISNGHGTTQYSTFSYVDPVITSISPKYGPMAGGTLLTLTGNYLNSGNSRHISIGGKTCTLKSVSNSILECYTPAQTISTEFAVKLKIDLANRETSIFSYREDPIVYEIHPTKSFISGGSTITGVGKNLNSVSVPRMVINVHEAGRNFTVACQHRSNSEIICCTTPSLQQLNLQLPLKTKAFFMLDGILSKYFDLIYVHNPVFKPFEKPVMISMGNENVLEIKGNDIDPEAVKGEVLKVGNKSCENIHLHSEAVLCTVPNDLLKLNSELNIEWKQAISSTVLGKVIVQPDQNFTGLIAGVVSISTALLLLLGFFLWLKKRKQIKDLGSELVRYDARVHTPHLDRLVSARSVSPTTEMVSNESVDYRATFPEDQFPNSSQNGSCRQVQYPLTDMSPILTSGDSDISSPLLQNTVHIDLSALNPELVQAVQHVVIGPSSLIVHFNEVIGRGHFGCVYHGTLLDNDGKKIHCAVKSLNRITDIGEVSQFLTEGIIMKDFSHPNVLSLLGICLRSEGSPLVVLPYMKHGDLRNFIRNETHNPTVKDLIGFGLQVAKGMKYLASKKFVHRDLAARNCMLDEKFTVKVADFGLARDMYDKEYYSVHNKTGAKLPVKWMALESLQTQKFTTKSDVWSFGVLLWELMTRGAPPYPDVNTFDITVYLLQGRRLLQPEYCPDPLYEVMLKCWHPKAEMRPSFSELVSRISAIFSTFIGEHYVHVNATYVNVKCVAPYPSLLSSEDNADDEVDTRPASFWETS
Chain of KDR (h) (P35968 20-1356): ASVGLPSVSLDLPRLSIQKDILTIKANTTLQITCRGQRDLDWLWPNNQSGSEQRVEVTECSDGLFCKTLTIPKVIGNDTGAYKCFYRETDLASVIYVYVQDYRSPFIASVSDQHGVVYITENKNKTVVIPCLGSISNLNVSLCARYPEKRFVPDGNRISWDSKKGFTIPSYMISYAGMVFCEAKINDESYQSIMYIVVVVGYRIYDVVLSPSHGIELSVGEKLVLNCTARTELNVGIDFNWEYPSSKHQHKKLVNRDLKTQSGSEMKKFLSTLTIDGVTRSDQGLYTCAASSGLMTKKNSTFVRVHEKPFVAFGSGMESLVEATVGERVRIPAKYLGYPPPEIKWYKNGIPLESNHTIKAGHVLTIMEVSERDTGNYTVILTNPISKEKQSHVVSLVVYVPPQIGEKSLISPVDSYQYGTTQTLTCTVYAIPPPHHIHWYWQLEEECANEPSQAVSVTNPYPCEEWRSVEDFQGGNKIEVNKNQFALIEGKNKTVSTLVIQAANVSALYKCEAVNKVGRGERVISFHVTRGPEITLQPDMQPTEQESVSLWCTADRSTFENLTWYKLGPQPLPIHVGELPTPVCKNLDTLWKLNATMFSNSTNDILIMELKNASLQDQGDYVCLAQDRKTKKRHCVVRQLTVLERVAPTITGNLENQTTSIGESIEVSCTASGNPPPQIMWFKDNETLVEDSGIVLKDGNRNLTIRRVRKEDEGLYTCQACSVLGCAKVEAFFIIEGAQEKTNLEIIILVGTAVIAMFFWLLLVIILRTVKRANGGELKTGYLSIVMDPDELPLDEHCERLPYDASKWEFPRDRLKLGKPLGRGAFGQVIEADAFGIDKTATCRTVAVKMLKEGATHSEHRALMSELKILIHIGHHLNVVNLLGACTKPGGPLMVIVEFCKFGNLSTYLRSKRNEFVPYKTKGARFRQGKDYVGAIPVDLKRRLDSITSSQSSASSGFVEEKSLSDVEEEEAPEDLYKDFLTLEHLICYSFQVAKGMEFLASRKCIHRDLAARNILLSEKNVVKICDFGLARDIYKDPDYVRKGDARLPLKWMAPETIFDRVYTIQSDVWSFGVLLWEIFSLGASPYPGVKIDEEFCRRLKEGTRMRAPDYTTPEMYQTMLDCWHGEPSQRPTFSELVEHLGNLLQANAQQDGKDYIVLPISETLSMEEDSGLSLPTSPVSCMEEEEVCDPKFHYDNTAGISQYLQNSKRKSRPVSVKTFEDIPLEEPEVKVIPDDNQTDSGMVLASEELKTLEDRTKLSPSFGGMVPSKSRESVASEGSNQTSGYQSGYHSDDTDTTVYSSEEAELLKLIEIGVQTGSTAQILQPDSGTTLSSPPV

In general, Kd refers to the free concentration of one partner at which half of the binding sites on the other are occupied at equilibrium, for simple one-to-one binding. In the case of `Cc1c(C(=O)Nc2ccc(Oc3ccnc(C(N)=O)c3)c(F)c2)c(=O)n(-c2ccccc2)n1C` [Example 10, 4-(4-(1,5-dimethyl-3-oxo-2-phenyl-2,3-dihydro-1H-pyrazole-4-carboxamido)-2-fluorophenoxy)picolinamide], the Kd in data set [1] stood at 450 nM; in data set [2] it was 200 nM.
Broadly, the half-life is the time in which the quantity being followed falls by half. A higher half-life goes with slow loss. What is called CLint scaled is a measure of how fast metabolising enzymes remove a compound, apart from limits set by blood flow. By AUC(0-t) is commonly meant the area under the concentration-time curve up to a stated or last time point. A lower AUC(0-t) goes with less exposure. The compound `Cc1c(C(=O)Nc2ccc(Oc3ccnc(NC(=O)C4CC4)c3)c(F)c2)c(=O)n(-c2ccccc2)n1C` [Example 11, N-(4-((2-(cyclopropanecarboxamido)pyridin-4-yl)oxy)-3-fluorophenyl)-1,5-dimethyl-3-oxo-2-phenyl-2,3-dihydro-1H-pyrazole-4-carboxamide] showed a Kd in data set [1] of 6.3 nM. Also, the “TGI% (on last day of dosing)” value in data set [3] (6 mg/kg) is listed as 56%. Further, the “TGI% (on last day of dosing)” value in data set [3] (30 mg/kg) was found to be 97%. In data set [4], the “stability / metabolism in rat liver microsomes (in words)” value (“stability / metabolism” below) is given as “little metabolized”, the half-life at 5 μM is 3.93 h and the CLint scaled at 5 μM is 10.5 mL/min/kg. Further, in data set [5] (dose 1 mg/kg), the Cl/F stood at 0.83 mL/min/kg, the AUC(0-t) turned out to be 14000 ng·h/mL, the half-life was 4.61 h and the Vd is 0.34 L/kg. This compound had a F in data set [5] (iv dose 1 mg/kg) of 133.5%. Besides, the Kd in data set [2] is 0.5 nM.
In data set [1], `Cc1c(C(=O)Nc2ccc(Oc3ccnc(NC(=O)C4CC4)c3)cn2)c(=O)n(-c2ccccc2)n1C` [Example 8, N-(5-((2-(cyclopropanecarboxamido)pyridin-4-yl)oxy)pyridin-2-yl)-1,5-dimethyl-3-oxo-2-phenyl-2,3-dihydro-1H-pyrazole-4-carboxamide] yielded a dissociation constant (Kd) of 3.2 nM. In addition, in data set [3] (6 mg/kg), the “TGI% (on last day of dosing)” value came out at 32%. For the same compound, in data set [3] (30 mg/kg), the “TGI% (on last day of dosing)” value is 78%. In data set [4], the “stability / metabolism” value is on record as “little metabolized”, the half-life at 5 μM was 11.7 h and the CLint scaled at 5 μM was 3.53 mL/min/kg. Moreover, in data set [5] (dose 2 mg/kg), the Cl/F amounted to 0.83 mL/min/kg, the area under the curve AUC(0-t) amounted to 38300 ng·h/mL, the half-life was 4.06 h and the Vd came to 0.27 L/kg. Moreover, the F in data set [5] (iv dose 2 mg/kg) turned out to be 85.88%. The same compound gave an equilibrium dissociation constant (Kd) in data set [2] of 2.4 nM.
Turning to `Cc1c(C(=O)Nc2ccc(Oc3ccnc(NC(=O)C4CC4)c3)cc2)c(=O)n(-c2ccccc2)n1C` [Example 16, N-(4-((2-(cyclopropanecarboxamido)pyridin-4-yl)oxy)phenyl)-1,5-dimethyl-3-oxo-2-phenyl-2,3-dihydro-1H-pyrazole-4-carboxamide], the Kd in data set [1] turned out to be 2.9 nM. Moreover, in data set [4], the “stability / metabolism” value is “little metabolized”, the half-life at 5 μM amounted to 7.06 h and the intrinsic clearance (CLint scaled) at 5 μM is 5.86 mL/min/kg. Besides, in data set [5] (dose 1 mg/kg), the Cl/F turned out to be 0.67 mL/min/kg, the AUC(0-t) worked out at 23400 ng·h/mL, the half-life is 5.95 h and the Vd came out at 0.31 L/kg. The F in data set [5] (iv dose 1 mg/kg) came to 94.49%. This compound returned a Kd in data set [2] of 0.21 nM.
